Data reported in US20230180754A1, “HETEROCYCLIC COMPOUNDS FOR THE CONTROL OF INVERTEBRATE PESTS” (priority 2020, published 2023).

How the values were obtained:
Type in all cases: in vivo
[1] = system: green peach aphid (Myzus persicae); test: Green peach aphid (Myzus persicae), systemic artificial diet/membrane test; settings: 72 h, aphid mortality after 3 days, read-out: mortality in comparison with untreated controls
Excerpt: For evaluating control of green peach aphid (Myzus persicae) through systemic means the test unit consisted of 96-well-microtiter plates containing liquid artificial diet under an artificial membrane.
The compounds were formulated using a solution containing 75% v/v water and 25% v/v DMSO. Different concentrations of formulated compounds were pipetted into the aphid diet, using a custom-built pipette, at two replications.
After application, 5-8 adult aphids were placed on the artificial membrane inside the microtiter plate wells. The aphids were then allowed to suck on the treated aphid diet and incubated at about 23 ±1° C. and about 50 ±5% relative humidity for 3 days. Aphid mortality and fecundity was then visually assessed.

[2] = system: boll weevil (Anthonomus grandis); test: Boll weevil (Anthonomus grandis), microtiter plate insect diet test; settings: 120 h, egg and larval mortality after 5 days, read-out: mortality in comparison with untreated controls
Experimental: (§1) For evaluating control of boll weevil (Anthonomus grandis) the test unit consisted of 96-well-microtiter plates containing an insect diet and 5-10 A. grandis eggs. The compounds were formulated using a solution containing 75% v/v water and 25% v/v DMSO. Different concentrations of formulated compounds were sprayed onto the insect diet at 5 μl, using a custom-built micro atomizer, at two replications.
After application, microtiter plates were incubated at about 25±1° C. and about 75±5% relative humidity for 5 days. Egg and larval mortality was then visually assessed.

[3] = system: tobacco budworm (Heliothis virescens); test: Tobacco budworm (Heliothis virescens), microtiter plate insect diet test; settings: 120 h, egg and larval mortality after 5 days, read-out: mortality in comparison with untreated controls
Experimental: as §1, with “of tobacco budworm (Heliothis virescens)” for “of boll weevil (Anthonomus grandis)”, “and 15-25 H. virescens” for “and 5-10 A. grandis”, “at 10” for “at 5”
After application, microtiter plates were incubated at about 28±1° C. and about 80±5% relative humidity for 5 days. Egg and larval mortality was then visually assessed.

[4] = system: yellow fever mosquito (Aedes aegypti); test: whole plant or invertebrate; settings: 48 h, larval mortality after 2 days, read-out: mortality in comparison with untreated controls
Experimental: For evaluating control of yellow fever mosquito (Aedes aegypti) the test unit consisted of 96-well-microtiter plates containing 200 μl of tap water per well and 5-15 freshly hatched A. aegypti larvae.
The active compounds were formulated using a solution containing 75% (v/v) water and 25% (v/v) DMSO. Different concentrations of formulated compounds or mixtures were sprayed onto the insect diet at 2.5 μl, using a custom-built micro atomizer, at two replications.
After application, microtiter plates were incubated at 28±1° C., 80±5% RH for 2 days. Larval mortality was then visually assessed.

[5] = system: diamond back moth (Plutella xylostella); test: Diamond back moth (Plutella xylostella), cabbage leaf disc dip test; settings: foliar, 72 hours after treatment, 3rd instar larvae, read-out: mortality in comparison with untreated controls
Experimental: The active compound was dissolved at the desired concentration in a mixture of 1:1 (vol:vol) distilled water:acetone. Surfactant (Kinetic) was added at a rate of 0.01% (vol/vol). The test solution was prepared at the day of use. Cabbage leaf discs (60 mm in diameter) were dipped in test solution and air-dried. Treated leaves were placed in petri dishes lined with moistened filter paper and inoculated with ten 3rd instar larvae. Mortality was recorded 72 hours after treatment. Feeding damages were also recorded using a scale of 0-100%.

[6] = system: orchid thrips (Dichromothrips corbetti); test: Orchid thrips (Dichromothrips corbetti), floral-immersion technique; settings: 72 hours after treatment, adult thrips, read-out: mortality in comparison with untreated controls
Experimental: Dichromothrips corbetti adults used for bioassay were obtained from a colony maintained continuously under laboratory conditions. For testing purposes, the test compound was diluted in a 1:1 mixture of acetone:water (vol:vol), plus Kinetic at a rate of 0.01% v/v.
Thrips potency of each compound was evaluated by using a floral-immersion technique. Each orchid petal was dipped into treatment solution and allowed to dry in Petri dishes. Treated petals were placed into individual re-sealable plastic along with about 20 adult thrips. All test arenas were held under dark condition and a temperature of about 28° C. for duration of the assay. The percent mortality was recorded 72 hours after treatment.

[7] = system: southern armyworm (Spodoptera eridania), 2nd instar larvae; test: Southern armyworm (Spodoptera eridania), 2nd instar larvae, sprayed lima bean plants; settings: 96 h, 4 days after treatment, read-out: mortality in comparison with untreated controls
Excerpt: The active compounds were formulated by a Tecan liquid handler in 100% cyclohexanone as a 10′000 ppm solution supplied in tubes. The 10′000 ppm solution was serially diluted in 100% cyclohexanone to make interim solutions. These served as stock solutions for which final dilutions were made by the Tecan in 50% acetone:50% water (v/v) into 10 or 20m1 glass vials. A nonionic surfactant (Kinetic®) was included in the solution at a volume of 0.01% (v/v). The vials were then inserted into an automated electrostatic sprayer equipped with an atomizing nozzle for application to plants/insects. Lima bean plants (variety Sieva) were grown 2 plants to a pot and selected for treatment at the 1st true leaf stage. Test solutions were sprayed onto the foliage by an automated electrostatic plant sprayer equipped with an atomizing spray nozzle. The plants were dried in the sprayer fume hood and then removed from the sprayer. Each pot was placed into perforated plastic bags with a zip closure. Ten to 11 armyworm larvae were placed into the bag and the bags zipped closed. Test plants were maintained in a growth room at about 25° C. and about 20-40% relative humidity for 4 days, avoiding direct exposure to fluorescent light (14:10 light:dark photo-period) to prevent trapping of heat inside the bags. Mortality and reduced feeding were assessed 4 days after treatment, compared to untreated control plants.

[8] = system: rice green leafhopper (Nephotettix virescens); test: Rice green leafhopper (Nephotettix virescens), sprayed rice seedlings; settings: after 72 hours, adults, read-out: mortality in comparison with untreated controls
Experimental: Four to five-week old rice seedlings with cut upper leaf portion were cleaned and washed 24 hours before spraying. The active compounds were formulated in 1:1 acetone:water (vol:vol), and 0.01% vol/vol surfactant (Kinetic) was added. Potted rice seedlings were sprayed with 5-6 ml test solution, air dried, covered with Mylar cages and inoculated with 10 adults. Treated rice plants were kept at about 28-29° C. and relative humidity of about 50-60%. Percent mortality was recorded after 72 hours.

CC(c1ncnn1-c1ncccn1)N(CC1CC1)c1nnc2c(Cl)cc(C(F)(F)F)cn12 (stereo not drawn) [I-6, 8-chloro-N-(cyclopropylmethyl)-N-[1-(2-pyrimidin-2-yl-1,2,4-triazol-3-yl)ethyl]-6-(trifluoromethyl)-[1,2,4]triazolo[4,3-a]pyridin-3-amine]
≥ 50%: mortality at 2500 ppm [1]

CC(NC1=NS(=O)(=O)c2c(Cl)cc(Cl)cc21)c1ncnn1-c1ncccn1 (stereo not drawn) [I-9, 5,7-dichloro-1,1-dioxo-N-[1-(2-pyrimidin-2-yl-1,2,4-triazol-3-yl)ethyl]-1,2-benzothiazol-3-amine]
≥ 50%: mortality at 2500 ppm [2] | mortality at 2500 ppm [1]

CC(Nc1noc2ncc(C(F)(F)F)cc12)c1ncnn1-c1ncccn1 (stereo not drawn) [I-3, N-[1-(2-pyrimidin-2-yl-1,2,4-triazol-3-yl)ethyl]-5-(trifluoromethyl)isoxazolo[5,4-b]pyridin-3-amine]
≥ 50%: mortality at 2500 ppm [2] | mortality at 2500 ppm [1]

CC(Nc1noc2c(C(F)(F)F)cc(C(F)(F)F)cc12)c1ncnn1-c1ncccn1 (stereo not drawn) [I-1, N-[1-(2-pyrimidin-2-yl-1,2,4-triazol-3-yl)ethyl]-5,7-bis(trifluoromethyl)-1,2-benzoxazol-3-amine]
≥ 50%: mortality at 2500 ppm [2] | mortality at 2500 ppm [1] | mortality at 2500 ppm [3] | mortality at 2500 ppm [4]

CCC(Nc1noc2c(C(F)(F)F)cc(C(F)(F)F)cc12)c1ncnn1-c1ncccn1 (stereo not drawn) [I-28, N-[1-(2-pyrimidin-2-yl-1,2,4-triazol-3-yl)propyl]-5,7-bis(trifluoromethyl)-1,2-benzoxazol-3-amine]
≥ 50%: mortality at 300 ppm [5] | mortality at 2500 ppm [2] | mortality at 2500 ppm [1] | mortality at 300 ppm [6] | mortality at 2500 ppm [3]

CC(Nc1nn(C)c2ccc(C(F)(F)F)cc12)c1ncnn1-c1ncccn1 (stereo not drawn) [I-4, 1-methyl-N-[1-(2-pyrimidin-2-yl-1,2,4-triazol-3-yl)ethyl]-5-(trifluoromethyl)indazol-3-amine]
≥ 50%: mortality at 2500 ppm [2] | mortality at 2500 ppm [3] | mortality at 2500 ppm [4]

CC(Nc1c(C(F)(F)F)c(C(F)(F)C(F)(F)F)nn1C)c1ncnn1-c1ncccn1 (stereo not drawn) [I-7, 2-methyl-5-(1,1,2,2,2-pentafluoroethyl)-N-[1-(2-pyrimidin-2-yl-1,2,4-triazol-3-yl)ethyl]-4-(trifluoromethyl)pyrazol-3-amine]
≥ 50%: mortality at 300 ppm [5] | mortality at 300 ppm [6] | mortality at 2500 ppm [3]

CC(Nc1nsc2c(Cl)cc(Cl)cc12)c1ncnn1-c1ncccn1 (stereo not drawn) [I-5, 5,7-dichloro-N-[1-(2-pyrimidin-2-yl-1,2,4-triazol-3-yl)ethyl]-1,2-benzothiazol-3-amine]
≥ 50%: mortality at 300 ppm [7] | mortality at 2500 ppm [2] | mortality at 2500 ppm [1] | mortality at 2500 ppm [3] | mortality at 2500 ppm [4]

CC(Nc1n[s+]([O-])c2c(Cl)cc(Cl)cc12)c1ncnn1-c1ncccn1 (stereo not drawn) [I-8, 5,7-dichloro-1-oxo-N-[1-(2-pyrimidin-2-yl-1,2,4-triazol-3-yl)ethyl]-1,2-benzothiazol-3-amine]
≥ 50%: mortality at 300 ppm [8] | mortality at 2500 ppm [2] | mortality at 2500 ppm [1] | mortality at 300 ppm [6]

FC(F)(F)c1cc(C(F)(F)F)c2onc(NCc3ncnn3-c3ncccn3)c2c1 [I-2, N-[(2-pyrimidin-2-yl-1,2,4-triazol-3-yl)methyl]-5,7-bis(trifluoromethyl)-1,2-benzoxazol-3-amine]
≥ 50%: mortality at 300 ppm [5] | mortality at 2500 ppm [2] | mortality at 300 ppm [6] | mortality at 2500 ppm [4]
